Measured values as given in patent publication US6800285B2 (priority 2000, dated 2004).

How the values were obtained:
[1] = tested on: TMEV; test: Serum anti-TMEV IgG titers after glatiramer acetate immunization; format: in vivo, Theiler's murine encephalomyelitis virus; settings: four weeks after immunization, vs control mice
Protocol: An indirect ELISA was performed in which serum or a purified antibody was applied to plates that were pre-coated with glatiramer acetate or other protein antigens. The antigen of interest was dissolved in 0.1 M carbonate buffer, pH 9.5, and applied at 1 μg per well in 96-well polystrene plates. Incubation was overnight at 4° C. Plates were then rinsed with PBST (phosphate buffered saline containing 0.05% Tween 20 detergent) and incubated for 1 hr in PBSM (phosphate buffered saline containing 5% defatted milk powder). Plates were rinsed with PBST, then incubated for 4 hr at room temperature with 50×PBS. Plates were rinsed with PBST, then incubated with biotinylated secondary antibodies that were raised in goat. The secondary antibodies, diluted in PBSM 1:50, were specific to mouse IgG or mouse IgM. Incubation was for 2 hr at room temperature. Plates were rinsed in PBST, then PBS. Streptavidin-alkaline phosphatase conjugate diluted in PBS was applied to the plates for 2 hr room temperature. Plates were rinsed with PBST, with a final rinse in water. The colored reaction product was produced by incubation with p-nitrophenyl phosphatase in 0.1 M carbonate buffer plus 1 mM magnesium chloride. The reaction was stopped with 0.5 N sodium hydroxide. […] Optical absorbency was measured at a wavelength of 405 nm.
(§1) Serum titers of antibodies against TMEV and anti-TMEV DTH reactions were measured.

[2] = tested on: experimental autoimmune encephalomyelitis (EAE); settings: unlike MBP; cited from earlier work
[3] = tested on: multiple sclerosis; settings: daily subcutaneous injections, 20 mg/injection; cited from earlier work
[4] = tested on: SJL/J mice infected with Theiler's murine encephalomyelitis virus; test: Spinal cord demyelination quantitation (lesion load) in TMEV-infected mice; format: in vivo, mouse
Protocol: (§2) All mice used in the experiments were SJL/J mice (Jackson Laboratories, Bar Harbor, Me.). Six- to eight-week-old mice were intracerebrally injected with 2.0×10^6 pfu of Daniel's strain of Theiler's murine encephalomyelitis virus.
(§3) Areas of spinal cord demyelination (lesion load) and remyelination (73) were determined from multiple cross-sections of plastic-embedded spinal cords, using a camera lucida system and a computerized drawing tablet (39). Briefly, mice were sacrificed by overdose with sodium pentobarbital and perfused by intracardiac puncture with Trumps fixative, containing 4% paraformaldehyde and 1% glutaraldehyde. Spinal cords were removed, post-fixed in osmium textroxide, and sectioned into 1 mm blocks. Every third block (10-12 blocks per spinal cord; cervical to lumbar range) was embedded in Araldite plastic. The embedded tissues were cross-sectioned at 1 μm thickness, and the slides stained with 4% paraphenylenediamine to highlight the myelin sheaths.
Using a camera lucida attached to a Zeiss photomicroscope and a ZIDAS interactive digital analysis system, three parameters were measured from each slide: total white matter area, demyelinated lesion area, and remyelination area. Outline of these regions were traced and the areas calculated by the computerized digital analysis system. Demyelination was expressed as the total lesion area as a percentage of total white matter area. Remyelination was expressed as the total remyelination area as a percentage of the total demyelinated lesion area. The criterion for remyelination by oligodendrocytes was abnormally thin myelin sheaths. All remyelination data refers to oligodendrocyte-mediated remyelination. Occasionally, Schwann-cell mediated remyelination was observed, characterized by abnormally thick myelin sheaths and nuclei juxtaposed to the myelin sheath.
Virus was injected on Day 0.
Chronically infected mice (124-365 days post-infection) were treated subcutaneously for periods of 41-76 days. […] These mice were sacrificed after 65 days. […] The members of this group were sacrificed after 65-76 days. […] Sacrifice of these mice occurred after 41-65 days. The control group of mice received PBS. In all groups, spinal cord demyelination was measured after sacrifice.
Chronically infected mice (160-477 days post-infection) were treated by intraperitoneal injection with antibodies for periods of 36-76 days. One group of mice received Normal antibodies, administered in 10 injections of 0.05 mg each for a total of 0.5 mg over 42 days. […] PBS was administered to the control group of mice. Spinal cord white matter demyelinating pathology was measured post-sacrifice for all mice.
Each mouse received 5 weekly injections for total antibody doses of 0.5 or 1.5 mg (0.1-0.3 mg/injection). After sacrifice, spinal cord demyelination was measured.

[5] = Serum titres of glatiramer acetate IgG after glatiramer acetate immunization (ELISA); format: in vivo, mouse
Protocol: The antigen of interest was dissolved in 0.1 M carbonate buffer, pH 9.5, and applied at 1 μg per well in 96-well polystrene plates. Incubation was overnight at 4° C. Plates were then rinsed with PBST (phosphate buffered saline containing 0.05% Tween 20 detergent) and incubated for 1 hr in PBSM (phosphate buffered saline containing 5% defatted milk powder). Plates were rinsed with PBST, then incubated for 4 hr at room temperature with 50×PBS. Plates were rinsed with PBST, then incubated with biotinylated secondary antibodies that were raised in goat. The secondary antibodies, diluted in PBSM 1:50, were specific to mouse IgG or mouse IgM. Incubation was for 2 hr at room temperature. Plates were rinsed in PBST, then PBS. Streptavidin-alkaline phosphatase conjugate diluted in PBS was applied to the plates for 2 hr room temperature. Plates were rinsed with PBST, with a final rinse in water. The colored reaction product was produced by incubation with p-nitrophenyl phosphatase in 0.1 M carbonate buffer plus 1 mM magnesium chloride. The reaction was stopped with 0.5 N sodium hydroxide. Antibody isotyping was performed using a detection kit and purified isotype standards from Zymed Laboratories (San Francisco, Calif.). Extrapolation of the concentration of each isotype within the antibody samples was based on the sample dilution that produced the absorbence signal falling within the most linear portion of each standard isotype curve. Optical absorbency was measured at a wavelength of 405 nm.
Antibodies from normal SJL serum (SJL Ig) and commercial, pooled mouse serum (Pooled Ig) were also purifed by Protein A/G chromatography.
Mice were sacrificed on Day 65 post-immunization. […] The secondary antibody was biotinylated anti-mouse IgG.
Serum was isolated from these mice on Day 62. […] Serum was isolated from these mice on Day 41. […] Serum was isolated on Day 76. […] The secondary antibody was biotinylated anti-mouse IgG.
The final passive transfer was on Day 35. After 41 days of treatment, both groups of mice were sacrificed and serum titres of Copolymer IgG was measured by ELISA. The secondary antibody was biotinylated anti-mouse IgG.

[6] = tested on: TMEV; test: TMEV antigen expression (virus antigen-positive cells); format: in vivo, Theiler's murine encephalomyelitis virus; settings: 6-9 wks after high-dose immunization
[7] = tested on: lymph node-derived lymphocytes from MBP84-102- and PLP179-191-immunized mice; test: In vitro [3H]-thymidine proliferation of lymph node-derived lymphocytes from myelin peptide-immunized mice; format: cell-based, mouse; settings: Experiment 6A; 53 hours culture
Protocol: Two mice were subcutaneously injected in the flanks with MBP 84-102 in complete Fruend's adjuvant (CFA). MBP84-102 was obtained by following the procedure of Hawes et al (24). A method similar to that of Tuohy et al. was employed to produce PLP179-191 (70). PLP179-191 in CFA was subcutaneously injected into the flanks of 1 mouse. […] In the last 13 hours of culture, 1 μCi of [^3H]-thymidine was added and its incorporation measured by scintillation counting of harvested cells.
Mice were subcutaneously injected in the flanks with MBP84-102 (2 mice) peptide in CFA. After 10 days, inguinal and peri-aortic lymph nodes were removed, dissociated, and grown for 74 hours in cultures in medium alone or with additional additives as shown in FIG. 17. In the last 12 hours of culture, 1 μCi of [^3H]-thymidine was added and its incorporation measured by scintillation counting of harvested cells.

[8] = tested on: UV-inactivated TMEV; test: TMEV delayed type hypersensitivity (ear thickness); format: in vivo, mouse; settings: immunized mice vs IFA control
Protocol: Ear thickness was measured prior to injection, and 24 and 48 hr after injection.
as §1

[9] = tested on: SJL/J mice infected with Theiler's murine encephalomyelitis virus; test: Spinal cord remyelination quantitation in TMEV-infected mice; format: in vivo, mouse
Protocol: as §2
as §3, with “The embedded tissues were cross-sectioned at 1 μm thickness, and the slides stained with 4% paraphenylenediamine to highlight the myelin sheaths.” left out
Using a camera lucida attached to a Zeiss photomicroscope and a ZIDAS interactive digital analysis system, three parameters were measured from each slide: total white matter area, demyelinated lesion area, and remyelination area. Outline of these regions were traced and the areas calculated by the computerized digital analysis system. Demyelination was expressed as the total lesion area as a percentage of total white matter area. Remyelination was expressed as the total remyelination area as a percentage of the total demyelinated lesion area. […]

L-glutamic acid polymer with L-alanine, L-lysine and L-tyrosine, acetate (salt) [glatiramer acetate]
anti-TMEV titers (total IgG, IgG1, IgG2a) [1]: reduced
effect on EAE [2]: inhibits rather than induces
clinical effect in multiple sclerosis [3]: reduce relapse rates, appearance of new lesions by magnetic resonance imaging (MRI), and progression of disability
effect on extent of demyelination ([4]; early disease, 45 days post-infection, 0.1 mg/injection, 60 days of treatment): no statistically significant effect
effect on demyelinating lesions ([4]; late disease, high dose (5 mg glatiramer acetate/IFA, 1-2 injections), vs PBS): expansion of the demyelinating lesions
white matter demyelinated (mean lesion load) ([4]; late disease, high dose of glatiramer acetate): 20%
effect on extent of demyelination ([4]; late disease, low doses (0.1 mg/injection), alone or with adjuvant): did not alter the extent of demyelination
white matter demyelinated (mean lesion load) ([4]; late disease, low-dose glatiramer acetate): 10%
highest antibody titer reached ([5]; chronically diseased mice immunized with 5 mg): 1.2 mg/mL
dose dependence of production of antibodies against glatiramer acetate ([5]; chronically diseased mice, 0.1 vs 5 mg injections): highly dose-dependent
influence of dose (0.1-1.0 mg) and injection timing on glatiramer acetate IgG titres ([5]; non-infected immunized mice): did not significantly influence glatiramer acetate IgG titres
time required to achieve high antibody titres ([5]; non-infected immunized mice): Approximately 3 weeks
virus expression (virus antigen-positive cells) [6]: tended to be higher
lymphocyte proliferation [7]: did not induce significant proliferation
anti-TMEV DTH reactions [8]: reduced
remyelination of lesions (pathology) ([9]; Example 8, infected 6 months or longer, glatiramer acetate 0.1 mg/injection or antibodies 1.5 mg total): not more extensive than following the PBS treatment
effect on extent of oligodendrocyte-mediated remyelination ([9]; late disease, s.c. treatment as Experiment 2A, alone or with IFA): did not affect the extent of oligodendrocyre-mediated remyelination
